Reference: patent US6479435B1, “Diaryl ethers and processes for their preparation and herbicidal and desiccant compositions containing them” (ISK Americas Incorporated, priority 1997, dated 2002)

Assays:
Assay type in all cases: in vivo
[1] = tested on: soybean (Glycine max L., var. Pella 86, SOY); test: Post-emerge greenhouse test, crop damage rating; conditions: 14 days after application
Procedure, shortened: (§1)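 Plants at the 2-3 leaf stage, sown 8-21 days earlier, were track-sprayed post-emergence with compound in acetone plus 0.25% v/v non-ionic surfactant at 63-1000 g ai/ha (187 l/ha). Damage was rated at 14 days on a 0-100 scale (0 none, 100 all plants dead), for both crop injury and weed control.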

[2] = tested on: field corn (Zea mays L., var. Dekalb 535, CORN); test: Pre-emerge greenhouse test, crop damage rating; conditions: 14 days after application, rating scale 0-100
Procedure, shortened: (§2)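 Seeds sown in sandy loam one day before track-sprayer application of acetone solutions at 125–1000 g ai/ha (187 l/ha), then surface-watered to incorporate and bottom-watered. Injury scored visually at 14 days on a 0–100 scale (0 no damage, 100 complete death).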

[3] = tested on: upland rice (Oryza sp., var.Tebonnet, RICE); test: Pre-emerge greenhouse test, crop damage rating; conditions: 14 days after application, rating scale 0-100
Procedure, shortened: as §2

[4] = tested on: soybean (Glycine max L., var. Pella 86, SOY); test: Pre-emerge greenhouse test, crop damage rating; conditions: 14 days after application, rating scale 0-100
Procedure, shortened: as §2

[5] = tested on: velvetleaf (Abutilon theophrasti, ABUTH); test: Pre-emerge greenhouse herbicide test, phytotoxicity rating; conditions: 14 days after application, rating scale 0-100
Procedure, shortened: as §2

[6] = tested on: ivyleaf morningglory (Ipomoea hederacea, IPOHE); test: as above; conditions: 14 days after application, rating scale 0-100
Procedure, shortened: as §2

[7] = tested on: green foxtail (Setaria viridis, SETVI); test: as above; conditions: 14 days after application, rating scale 0-100
Procedure, shortened: as §2

[8] = tested on: common ragweed (Ambrosia artemisiifolia L., AMBEL); test: as above; conditions: 14 days after application, rating scale 0-100
Procedure, shortened: as §2

[9] = tested on: barnyardgrass (Echinochloa crusgalli, ECHCG); test: as above; conditions: 14 days after application, rating scale 0-100
Procedure, shortened: as §2

[10] = tested on: redroot pigweed (Amaranthus retroflexus, AMARE); test: as above; conditions: 14 days after application, rating scale 0-100
Procedure, shortened: as §2

[11] = tested on: Johnsongrass (Sorghum halepense, SORHA); test: as above; conditions: 14 days after application, rating scale 0-100
Procedure, shortened: as §2

[12] = tested on: sicklepod (Cassia obtusifolia, CASOB); test: as above; conditions: 14 days after application, rating scale 0-100
Procedure, shortened: as §2

[13] = tested on: large crabgrass (Digitaria sanguinalis, DIGSA); test: as above; conditions: 14 days after application, rating scale 0-100
Procedure, shortened: as §2

[14] = tested on: lambsquarters (Chenopodium album, CHEAL); test: as above; conditions: 14 days after application, rating scale 0-100
Procedure, shortened: as §2

[15] = tested on: common ragweed (Ambrosia artemisiifolia L., AMBEL); test: Post-emerge greenhouse herbicide test, phytotoxicity rating; conditions: 14 days after application
Procedure, shortened: as §1

[16] = tested on: field corn (Zea mays L., var. Dekalb 535, CORN); test: Post-emerge greenhouse test, crop damage rating; conditions: 14 days after application
Procedure, shortened: as §1

[17] = tested on: upland rice (Oryza sp., var.Tebonnet, RICE); test: Post-emerge greenhouse test, crop damage rating; conditions: 14 days after application
Procedure, shortened: as §1

[18] = tested on: velvetleaf (Abutilon theophrasti, ABUTH); test: Post-emerge greenhouse herbicide test, phytotoxicity rating; conditions: 14 days after application
Procedure, shortened: as §1

[19] = tested on: ivyleaf morningglory (Ipomoea hederacea, IPOHE); test: as above; conditions: 14 days after application
Procedure, shortened: as §1

[20] = tested on: green foxtail (Setaria viridis, SETVI); test: as above; conditions: 14 days after application
Procedure, shortened: as §1

[21] = tested on: barnyardgrass (Echinochloa crusgalli, ECHCG); test: as above; conditions: 14 days after application
Procedure, shortened: as §1

[22] = tested on: redroot pigweed (Amaranthus retroflexus, AMARE); test: as above; conditions: 14 days after application
Procedure, shortened: as §1

[23] = tested on: Johnsongrass (Sorghum halepense, SORHA); test: as above; conditions: 14 days after application
Procedure, shortened: as §1

[24] = tested on: large crabgrass (Digitaria sanguinalis, DIGSA); test: as above; conditions: 14 days after application
Procedure, shortened: as §1

[25] = tested on: lambsquarters (Chenopodium album, CHEAL); test: as above; conditions: 14 days after application
Procedure, shortened: as §1

## Cn1nc(-c2cc(Oc3cccc(F)n3)c(Cl)cc2F)c(Cl)c1C(F)(F)F [Compound 1-5]
[1]; 63 g al/ha
  SOY crop damage rating (0-100): 40
[1]; 500 g al/ha
  SOY crop damage rating (0-100): 90
[2]; 125 g ai/ha
  crop damage rating CORN: 20
[2]; 500 g ai/ha
  crop damage rating CORN: 30
[3]; 125 g ai/ha
  crop damage rating RICE: 30
[3]; 500 g ai/ha
  crop damage rating RICE: 20
[4]; 125 g ai/ha
  crop damage rating SOY: 0
[4]; 500 g ai/ha
  crop damage rating SOY: 0
[5]; 125 g ai/ha
  phytotoxicity rating ABUTH: 70
[5]; 500 g ai/ha
  phytotoxicity rating ABUTH: 90
[6]; 125 g ai/ha
  phytotoxicity rating IPOHE: 30
[6]; 500 g ai/ha
  phytotoxicity rating IPOHE: 70
[7]; 125 g ai/ha
  phytotoxicity rating SETVI: 100
[7]; 500 g ai/ha
  phytotoxicity rating SETVI: 100
[8]; 125 g ai/ha
  phytotoxicity rating AMBEL: 50
[8]; 500 g ai/ha
  phytotoxicity rating AMBEL: 90
[9]; 125 g ai/ha
  phytotoxicity rating ECHCG: 50
[9]; 500 g ai/ha
  phytotoxicity rating ECHCG: 90
[10]; 125 g ai/ha
  phytotoxicity rating AMARE: 100
[10]; 500 g ai/ha
  phytotoxicity rating AMARE: 100
[11]; 125 g ai/ha
  phytotoxicity rating SORHA: 50
[11]; 500 g ai/ha
  phytotoxicity rating SORHA: 95
[12]; 125 g ai/ha
  phytotoxicity rating CASOB: 50
[12]; 500 g ai/ha
  phytotoxicity rating CASOB: 100
[13]; 125 g ai/ha
  phytotoxicity rating DIGSA: 100
[13]; 500 g ai/ha
  phytotoxicity rating DIGSA: 90
[14]; 125 g ai/ha
  phytotoxicity rating CHEAL: 100
[14]; 500 g ai/ha
  phytotoxicity rating CHEAL: 100
[15]; 63 g al/ha
  AMBEL phytotoxicity rating (0-100): 30
[15]; 500 g al/ha
  AMBEL phytotoxicity rating (0-100): 90
[16]; 63 g al/ha
  CORN crop damage rating (0-100): 10
[16]; 500 g al/ha
  CORN crop damage rating (0-100): 30
[17]; 63 g al/ha
  RICE crop damage rating (0-100): 40
[17]; 500 g al/ha
  RICE crop damage rating (0-100): 80
[18]; 63 g al/ha
  ABUTH phytotoxicity rating (0-100): 30
[18]; 500 g al/ha
  ABUTH phytotoxicity rating (0-100): 100
[19]; 63 g al/ha
  IPOHE phytotoxicity rating (0-100): 95
[19]; 500 g al/ha
  IPOHE phytotoxicity rating (0-100): 100
[20]; 63 g al/ha
  SETVI phytotoxicity rating (0-100): 0
[20]; 500 g al/ha
  SETVI phytotoxicity rating (0-100): 100
[21]; 63 g al/ha
  ECHCG phytotoxicity rating (0-100): 30
[21]; 500 g al/ha
  ECHCG phytotoxicity rating (0-100): 100
[22]; 63 g al/ha
  AMARE phytotoxicity rating (0-100): 100
[22]; 500 g al/ha
  AMARE phytotoxicity rating (0-100): 100
[23]; 63 g al/ha
  SORHA phytotoxicity rating (0-100): 30
[23]; 500 g al/ha
  SORHA phytotoxicity rating (0-100): 95
[24]; 63 g al/ha
  DIGSA phytotoxicity rating (0-100): 50
[24]; 500 g al/ha
  DIGSA phytotoxicity rating (0-100): 99
[25]; 63 g al/ha
  CHEAL phytotoxicity rating (0-100): 95
[25]; 500 g al/ha
  CHEAL phytotoxicity rating (0-100): 100

## O=c1n(CCCF)nnn1-c1cc(Oc2ncccc2[N+](=O)[O-])c(Cl)cc1Cl [Compound 6-3]
[1]; 63 g al/ha
  SOY crop damage rating (0-100): 0
[1]; 500 g al/ha
  SOY crop damage rating (0-100): 30
[2]; 125 g ai/ha
  crop damage rating CORN: 30
[2]; 500 g ai/ha
  crop damage rating CORN: 10
[3]; 125 g ai/ha
  crop damage rating RICE: 20
[3]; 500 g ai/ha
  crop damage rating RICE: 20
[4]; 125 g ai/ha
  crop damage rating SOY: 0
[4]; 500 g ai/ha
  crop damage rating SOY: 0
[5]; 125 g ai/ha
  phytotoxicity rating ABUTH: 40
[5]; 500 g ai/ha
  phytotoxicity rating ABUTH: 30
[6]; 125 g ai/ha
  phytotoxicity rating IPOHE: 0
[6]; 500 g ai/ha
  phytotoxicity rating IPOHE: 20
[7]; 125 g ai/ha
  phytotoxicity rating SETVI: 99
[7]; 500 g ai/ha
  phytotoxicity rating SETVI: 70
[8]; 125 g ai/ha
  phytotoxicity rating AMBEL: 100
[8]; 500 g ai/ha
  phytotoxicity rating AMBEL: 40
[9]; 125 g ai/ha
  phytotoxicity rating ECHCG: 60
[9]; 500 g ai/ha
  phytotoxicity rating ECHCG: 0
[10]; 125 g ai/ha
  phytotoxicity rating AMARE: 0
[10]; 500 g ai/ha
  phytotoxicity rating AMARE: 90
[11]; 125 g ai/ha
  phytotoxicity rating SORHA: 30
[11]; 500 g ai/ha
  phytotoxicity rating SORHA: 0
[12]; 125 g ai/ha
  phytotoxicity rating CASOB: 30
[12]; 500 g ai/ha
  phytotoxicity rating CASOB: 40
[13]; 125 g ai/ha
  phytotoxicity rating DIGSA: 10
[13]; 500 g ai/ha
  phytotoxicity rating DIGSA: 50
[14]; 125 g ai/ha
  phytotoxicity rating CHEAL: 0
[14]; 500 g ai/ha
  phytotoxicity rating CHEAL: 90
[15]; 63 g al/ha
  AMBEL phytotoxicity rating (0-100): 0
[15]; 500 g al/ha
  AMBEL phytotoxicity rating (0-100): 0
[16]; 63 g al/ha
  CORN crop damage rating (0-100): 0
[16]; 500 g al/ha
  CORN crop damage rating (0-100): 0
[17]; 63 g al/ha
  RICE crop damage rating (0-100): 0
[17]; 500 g al/ha
  RICE crop damage rating (0-100): 40
[18]; 63 g al/ha
  ABUTH phytotoxicity rating (0-100): 0
[18]; 500 g al/ha
  ABUTH phytotoxicity rating (0-100): 20
[19]; 63 g al/ha
  IPOHE phytotoxicity rating (0-100): 20
[19]; 500 g al/ha
  IPOHE phytotoxicity rating (0-100): 70
[20]; 63 g al/ha
  SETVI phytotoxicity rating (0-100): 0
[20]; 500 g al/ha
  SETVI phytotoxicity rating (0-100): 30
[21]; 63 g al/ha
  ECHCG phytotoxicity rating (0-100): 0
[21]; 500 g al/ha
  ECHCG phytotoxicity rating (0-100): 20
[22]; 63 g al/ha
  AMARE phytotoxicity rating (0-100): 20
[22]; 500 g al/ha
  AMARE phytotoxicity rating (0-100): 80
[23]; 63 g al/ha
  SORHA phytotoxicity rating (0-100): 0
[23]; 500 g al/ha
  SORHA phytotoxicity rating (0-100): 30
[24]; 63 g al/ha
  DIGSA phytotoxicity rating (0-100): 0
[24]; 500 g al/ha
  DIGSA phytotoxicity rating (0-100): 0
[25]; 63 g al/ha
  CHEAL phytotoxicity rating (0-100): 0
[25]; 500 g al/ha
  CHEAL phytotoxicity rating (0-100): 80
